Measured values: the supplement of paper PMC10883282

Experiments:
Assay in all cases: relative viability vs DMSO control (72 h) (fraction); higher = more viable cells
KHOS-240S = system: KHOS-240S
How it was run: (§1)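 A 5 µM positive control and 0.1% DMSO vehicle ran alongside sarcoma cell lines seeded in 384-well plates to reach 80–90% confluence. Serially diluted compound, 2.5 µl from source plates of 10 mM to 0.0002 mM, was added after 24 h, and the plates were held 72 h at 37 °C, 5% CO2. Relative viability was worked out from ATPLite readings as percent growth averaged over up to triplicate wells. The values were rescaled so that 1 is full and 0 is none.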

RD-ES = system: RD-ES
How it was run: as §1

RD = system: RD
How it was run: as §1

SK-ES-1 = system: SK-ES-1
How it was run: as §1

SW982 = system: SW982
How it was run: as §1

C[C@H]1Oc2cc(cnc2N)-c2c(nn(C)c2C#N)CN(C)C(=O)c2ccc(F)cc21 [Lorlatinib]
relative viability
Conditions | KHOS-240S | RD | RD-ES | SK-ES-1 | SW982
0.00017 µM | 1.06 | 1.09 | 0.973 | 1.02 | 1.012
0.00051 µM | 1.08 | 1.11 | 0.96 | 1.03 | 1.04
0.00152 µM | 1.07 | 1.11 | 0.972 | 1.06 | 1.02
0.00457 µM | 1.07 | 1.09 | 0.978 | 1.05 | 1.04
0.01372 µM | 1.06 | 1.12 | 0.969 | 1.01 | 1.03
0.04115 µM | 1.01 | 1.07 | 0.9601 | 1.01 | 1.03
0.1235 µM | 1.01 | 1.02 | 0.965 | 1.023 | 0.895
0.3704 µM | 1.01 | 1 | 0.891 | 1.03 | 0.826
1.111 µM | 0.969 | 0.948 | 0.861 | 1 | 0.762
3.333 µM | 0.915 | 0.838 | 0.74 | 0.89 | 0.768
10 µM | 0.865 | 0.668 | 0.499 | 0.571 | 0.64

C#Cc1cccc(Nc2ncnc3cc(OCCOC)c(OCCOC)cc23)c1 [Erlotinib]
relative viability
Conditions | KHOS-240S | RD | RD-ES | SK-ES-1 | SW982
0.00017 µM | 1.06 | 1.08 | 0.971 | 1.048 | 1.06
0.00051 µM | 1.07 | 1.09 | 0.974 | 1.04 | 1.06
0.00152 µM | 1.05 | 1.09 | 0.975 | 1.08 | 1.08
0.00457 µM | 1.08 | 1.08 | 0.992 | 1.07 | 1.08
0.01372 µM | 1.06 | 1.07 | 0.965 | 1.09 | 1.06
0.04115 µM | 1.07 | 1.09 | 0.967 | 1.07 | 1.08
0.1235 µM | 1.087 | 1.09 | 0.998 | 1.05 | 1.07
0.3704 µM | 1.08 | 1.1 | 0.994 | 1.03 | 1.07
1.111 µM | 1.062 | 1.12 | 0.987 | 0.85 | 0.9728
3.333 µM | 1.06 | 1.04 | 0.936 | 0.567 | 0.689
10 µM | 0.949 | 0.786 | 0.691 | 0.324 | 0.466
